Measured values: US4257773A, “Assay method and compounds” (Burroughs Wellcome Co., priority 1979, dated 1981)

System: opiate receptor
Assay: Specific binding affinity of radio-iodinated peaks for the opiate receptor
Settings: monoiodinated (first peak) compared with diiodinated (second peak) compound
Description: The material comprising this peak was applied to a Sephadex 2-(diethylamino)ethyl ether column and eluted with sodium borate buffer (12.5 mM, pH 9.0, 0.1 N sodium chloride).

`CC(C)C[C@H](NC(=O)[C@H](Cc1ccccc1)NC(=O)CNC(=O)[C@@H](C)NC(=O)[C@@H](N)Cc1ccc(O)c([125I])c1)C(=O)O` [material of the first peak, H.Tyr(3-^125 I).D-Ala.Gly.Phe.Leu.OH] was tested, and the “specific binding affinity (for the opiate receptor)” value was “greater specific binding affinity (for the opiate receptor) than that of the second peak”.
